We go through 6 molecules from patent US20230241178A1, “LONG ACTING GLP-1/GIP DUAL AGONISTS” (SUN PHARMACEUTICAL INDUSTRIES LIMITED, priority 2020, published 2023).

Marks after values point to notes of the source that are not given here. Numbered stars: 1 amine (or outer) side, 2 acyl side, 3 side chain; on linkers, the order of the positions; unused ones are H or OH. Square brackets hold non-standard residues; d marks the D form. Primed or numbered codes have the meaning given here. Ends that are not written are not given here. dSer(OMe) = COC[C@@H](N[*:1])C(=O)[*:2]; Moiety B″ = not defined here; Aib = CC(C)(N)C(=O)O

In experiment [1] the test system is type 2 diabetic mouse (db/db) model. Kind of experiment: Effect on blood glucose, food intake and body weight, single s.c. dose 10 nM/kg, db/db mice (Tables 8, 9). The format is in vivo. Particulars: 10 nM/kg/s.c/single dose. Here is the method: This study was performed in a type 2 diabetic mouse (db/db) model. […] Baseline blood glucose was measured from all the animals. All the animals were administered with test items subcutaneously. Blood glucose was measured at 4 hr, 12 hr, 24 hr, 48 hr, 72 hr and 96 hr post treatment. Delta blood glucose (mM) was calculated. Body weight changes and cumulative food consumption was measured at 96 hr post treatment. Similarly the effect of Compounds 11-15 on blood glucose, food intake and body weight was studied in a separate study except for Compound 13. The results are shown in Table 8 (effect on blood glucose) and Table 9 (effect on body weight and food consumption).

The test system is the same in experiment [2]. Nature of the experiment: Reduction in blood glucose and effect on body weight and food intake, single dose, db/db mice (Tables 4, 5). The experiment is classed as in vivo. Conditions: for Delta Blood Glucose (mM), Mean: @ 3 nM s.c. Here is the method: The effect of Compounds of present invention on blood glucose was studied on mice. This study was performed in a type 2 diabetic mouse (db/db) model. […] Baseline blood glucose was measured from all the animals. All animals were administered with its respective test item subcutaneously. […] Delta blood glucose (mM) was calculated. Similarly body weight changes and cumulative food consumption was measured at 96 hr post treatment.

The test system is the same in experiment [3]. Nature of the experiment: Reduction of HbA1c in db/db type 2 diabetic mice after chronic treatment (HbA1c, insulin, triglycerides, food consumption, body weight). The experiment is classed as in vivo. Particulars: for Cumulative Food Consumption Day 0-28 / Insulin / Triglycerides / Δ% HbA1c vs. DC / Body Weight (%) Day 28 vs. Baseline: db/db mice. Here is the method: This study was performed in a type 2 diabetic mouse (db/db) model. […] All the treatments were injected subcutaneously every third day for 10 doses (q3d*10). % HbA1c, Insulin, Triglycerides levels were measured on Day 0, day 14 and day 28. Cumulative food intake from day 0-28 and % Change in body weight compared to day 0 was calculated on day 28.

Experiment [4] shares this test system. Kind of experiment: Effect of Compound 2 and 7 on blood glucose, body weight and food consumption in mice, up to 72 hr (Tables 6, 7). The experiment is classed as in vivo. Particulars: 90 nM/kg; mice, n = 8. Here is the method: Similarly body weight changes and cumulative food consumption was measured at 72 hr post treatment.
Experiment [5] addresses glucagon-like peptide-1 receptor (GLP-1R) (UniProt P43220 24-463, limits assumed). Nature of the experiment: cell-based or functional assay.
For the next experiment, the target named is T1, GIP-receptor (GIPR) (UniProt P48546 22-466, limits assumed).
T1 sequence (looked up): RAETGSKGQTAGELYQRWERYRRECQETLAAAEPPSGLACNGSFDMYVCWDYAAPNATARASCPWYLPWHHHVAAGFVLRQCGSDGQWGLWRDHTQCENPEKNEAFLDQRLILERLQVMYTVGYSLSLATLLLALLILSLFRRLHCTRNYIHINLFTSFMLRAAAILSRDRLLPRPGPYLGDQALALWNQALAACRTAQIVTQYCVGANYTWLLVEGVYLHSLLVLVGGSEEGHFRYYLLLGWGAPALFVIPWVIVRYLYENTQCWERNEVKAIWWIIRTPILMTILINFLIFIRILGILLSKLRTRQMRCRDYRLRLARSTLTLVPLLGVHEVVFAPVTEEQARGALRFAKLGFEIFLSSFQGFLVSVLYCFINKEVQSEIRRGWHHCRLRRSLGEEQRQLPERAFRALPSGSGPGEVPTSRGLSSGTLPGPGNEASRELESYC
Kind of experiment: cell-based or functional assay.

[6] abbreviates: 59 nM/kg s.c., separate study n = 5.

In the case of “Compound 12: Seq ID: 11 polypeptide, Lys acylated with Moiety C (YXEGTFTSDYSIXLDKIAQKAFVQWLIAGGPSSGAPPPSR; (2)..(2) Xaa = Aib (2-Aminoisobutyric acid); (13)..(13) Xaa = Aib (2-Aminoisobutyric acid); (20)..(20) Side chain amino (Epsilon amino) group of Lys is substituted)”, the “Delta Blood Glucose (mM), Mean” value in experiment [1] (0 hr (baseline)) was 0.0 mM; in experiment [1] (4 hr post treatment), −14.2*** mM; in experiment [1] (12 hr post treatment), −13.0*** mM; in experiment [1] (24 hr post treatment), −8.0*** mM; in experiment [1] (48 hr post treatment), −5.5* mM; in experiment [1] (72 hr post treatment), -2.9 mM. In addition, the “Delta Blood Glucose (mM), Mean” value in experiment [1] (96 hr post treatment) turned out to be 1.7 mM. Besides, the “Body Wt. Change (%) 96 hr. vs. Baseline, Mean” value in experiment [1] is on record as −3.1** %. In addition, the “Cumulative food Intake (g) 96 hr. vs. Baseline, Mean” value in experiment [1] is 15.2*** g.

As for “Compound 3: Seq ID: 06 polypeptide, Lys acylated with Moiety B (Y[dSer(OMe)]EGTFTSDYSI[Aib]LDKIAQK(Moiety B″)AFVQWLIAGGPSSGAPPPS-NH2; reading uncertain)”, in experiment [2] (3 nM/kg s.c., n = 6 study), the “Cumulative Food Intake (g) 0-96 hr, Mean” value was determined as 21.9 g. The “Body Weight Change (%) 96 hr., Mean” value in experiment [2] (3 nM/kg s.c., n = 6 study) is listed as −2.5*** %. Further, the “Delta Blood Glucose (mM), Mean” value in experiment [2] (4 hr post treatment, n = 6 study) was -9.2 mM; in experiment [2] (12 hr post treatment, n = 6 study) it was -2.9 mM; in experiment [2] (24 hr post treatment, n = 6 study), 1.6 mM; in experiment [2] (48 hr post treatment, n = 6 study), 0.7 mM; in experiment [2] (72 hr post treatment, n = 6 study) it was 2 mM; in experiment [2] (96 hr post treatment, n = 6 study), 2.1 mM.

As to Tirzepatide [reference compound], the “improvement in HbA1c reduction from day 14 to day 28 (in words)” value in experiment [3] (180 nM/kg dose) is reported as “minimal improvement in HbA1c reduction”. Further, the “Cumulative Food Consumption Day 0-28” value in experiment [3] (90 nM/kg s.c. q3d*10) was 119.1. For the same molecule, the “Cumulative Food Consumption Day 0-28” value in experiment [3] (180 nM/kg s.c. q3d*10) came out at 90.1. Moreover, in experiment [3] (Day 14, 90 nM/kg s.c. q3d*10), the Insulin is given as 65.23 ng/mL, the Triglycerides is given as 168.7 mg/dL and the “Δ% HbA1c vs. DC” value was −2.63*** %. In addition, in experiment [3] (Day 14, 180 nM/kg s.c. q3d*10), the Insulin came out at 71.77 ng/mL, the Triglycerides is reported as 143.4 mg/dL and the “Δ% HbA1c vs. DC” value is listed as −3.50*** %. Besides, in experiment [3] (Day 28, 90 nM/kg s.c. q3d*10), the “Body Weight (%) Day 28 vs. Baseline” value is given as −0.9%, the Insulin is reported as 52.32 ng/mL, the Triglycerides worked out at 167.4 mg/dL and the “Δ% HbA1c vs. DC” value was −3.43*** %. Also, in experiment [3] (Day 28, 180 nM/kg s.c. q3d*10), the “Body Weight (%) Day 28 vs. Baseline” value was −6.8%, the Insulin worked out at 60.19 ng/mL, the Triglycerides stood at 141.3 mg/dL and the “Δ% HbA1c vs. DC” value was −3.74*** %. In addition, in experiment [2] (10 nM/kg s.c., n = 6 study), the “Cumulative Food Intake (g) 0-96 hr, Mean” value is reported as 13.3*** g and the “Body Weight Change (%) 96 hr., Mean” value is −3.4*** %. In addition, in experiment [2] (setting [6]), the “Cumulative Food Intake (g) 0-96 hr, Mean” value was determined as 15.9 g and the “Body Weight Change (%) 96 hr., Mean” value was −2.8** %. In experiment [4], the “% Body wt. change 72 hr. vs. 0 hr., Mean” value is −6.7*** % and the “Cumulative Food Consumption (0-72 hr) (g), Mean” value is on record as 8.1** g.

On to “Compound 11: Seq ID: 11 polypeptide, Lys acylated with Moiety B (YXEGTFTSDYSIXLDKIAQKAFVQWLIAGGPSSGAPPPSR; (2)..(2) Xaa = Aib (2-Aminoisobutyric acid); (13)..(13) Xaa = Aib (2-Aminoisobutyric acid); (20)..(20) Side chain amino (Epsilon amino) group of Lys is substituted)”, for which the “Delta Blood Glucose (mM), Mean” value in experiment [1] (0 hr (baseline)) is on record as 0.0 mM; in experiment [1] (4 hr post treatment), −10.5*** mM; in experiment [1] (12 hr post treatment), −11.2*** mM; in experiment [1] (24 hr post treatment) it was −14.6*** mM; in experiment [1] (48 hr post treatment), −6.4*** mM; in experiment [1] (72 hr post treatment) it was −2.9*** mM. In experiment [1] (96 hr post treatment), the “Delta Blood Glucose (mM), Mean” value is reported as 1.1 mM. In experiment [1], the “Body Wt. Change (%) 96 hr. vs. Baseline, Mean” value is on record as −4.5*** %. The “Cumulative food Intake (g) 96 hr. vs. Baseline, Mean” value in experiment [1] is 14.1*** g. Further, in experiment [1], the “blood glucose reduction post treatment (in words)” value is “statistically significant blood glucose reduction”.

Regarding “Compound 16: Seq ID: 11 polypeptide, Lys acylated with Moiety D (YXEGTFTSDYSIXLDKIAQKAFVQWLIAGGPSSGAPPPSR; (2)..(2) Xaa = Aib (2-Aminoisobutyric acid); (13)..(13) Xaa = Aib (2-Aminoisobutyric acid); (20)..(20) Side chain amino (Epsilon amino) group of Lys is substituted)”, the “Delta Blood Glucose (mM), Mean” value in experiment [1] (0 hr (baseline)) is 0.0 mM; in experiment [1] (4 hr post treatment) it was −14.4*** mM; in experiment [1] (12 hr post treatment), −12.1*** mM; in experiment [1] (24 hr post treatment), −10.8*** mM; in experiment [1] (48 hr post treatment), −4.9** mM; in experiment [1] (72 hr post treatment), 0.8 mM. In addition, the “Delta Blood Glucose (mM), Mean” value in experiment [1] (96 hr post treatment) was 0.7* mM.

B1: Compound 2 (peptide)
peptide: YXEGTFTSDYSIXLDKIAQKAFVQWLIAGGPSSGAPPPS
modifications: Aib at positions 2 and 13; side chain epsilon-amino group of Lys 20 acylated with Moiety B (U-W-Y-Z with W = -C(O)-C(CH3)2-NH-, i.e. 2-[2-(2-aminoethoxy)ethoxy]acetyl-Aib-gammaGlu-C20 diacid); C-terminal primary amide (Ser-NH2)
With B1, the “Tirzepatide/Compound 2 ratio of half-maximal effective concentrations, cellular cAMP assay” value in experiment [5] worked out at 1.68 ratio; with GIP-receptor (GIPR), 0.81 ratio.
